Data taken from ChEMBL document CHEMBL1909046, “DrugMatrix in vitro pharmacology data”.
Where a SMILES comes first, the peptide text is derived from it. Bridges are numbered along the chain shown (N, C = ends). [ ]: non-standard residue; d: D form. The star is where a group is joined. Ileψ(thiazoline)Cys = CC[C@H](C)[C@H](N)C1=N[C@H](C(=O)*)CS1; dOrn = NCCC[C@@H](N)C(=O)O

Columns and labels:
[1] = molecular target: T1, Caspase-1 (Homo sapiens, UniProt P29466); set-up: species or system Escherichia coli;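 also: Caspase-1 enzyme inhibition assay with a peptide substrate; in other assays of this panel Not Active means under 50% inhibition at 10 µM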
T1 sequence (P29466 whole entry): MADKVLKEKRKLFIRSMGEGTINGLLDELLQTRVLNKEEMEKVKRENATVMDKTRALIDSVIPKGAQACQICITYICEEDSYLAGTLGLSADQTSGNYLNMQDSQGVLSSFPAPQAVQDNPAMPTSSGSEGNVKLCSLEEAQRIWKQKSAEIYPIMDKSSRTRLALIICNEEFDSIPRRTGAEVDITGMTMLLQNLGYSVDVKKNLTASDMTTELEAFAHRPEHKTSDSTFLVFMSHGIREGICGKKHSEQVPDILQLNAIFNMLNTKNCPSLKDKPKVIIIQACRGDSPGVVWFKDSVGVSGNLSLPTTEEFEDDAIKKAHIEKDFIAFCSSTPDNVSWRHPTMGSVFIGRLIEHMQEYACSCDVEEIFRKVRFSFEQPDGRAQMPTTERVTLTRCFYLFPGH

[2] = molecular target: Matrix metalloproteinase-9 (Homo sapiens, UniProt P14780); type: cell-based;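 also: inhibition of isolated MMP-9 enzyme activity toward a synthetic peptide substrate, from the DrugMatrix protease screening panel; in other assays of this panel Not Active means under 50% inhibition at 10 µM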
[3] = DRUGMATRIX: ATPase, Na+/K+ enzyme inhibition (substrate: ATP); type: tissue-based, Sus scrofa, Heart; conditions: Not Active = under 50% inhibition at 10 µM
[4] = molecular target: T2, Type-2 angiotensin II receptor (Homo sapiens, UniProt P50052); type: cell-based; conditions: cho-k1; also: in other assays of this panel Not Active means under 50% inhibition at 10 µM
T2 sequence (P50052 whole entry): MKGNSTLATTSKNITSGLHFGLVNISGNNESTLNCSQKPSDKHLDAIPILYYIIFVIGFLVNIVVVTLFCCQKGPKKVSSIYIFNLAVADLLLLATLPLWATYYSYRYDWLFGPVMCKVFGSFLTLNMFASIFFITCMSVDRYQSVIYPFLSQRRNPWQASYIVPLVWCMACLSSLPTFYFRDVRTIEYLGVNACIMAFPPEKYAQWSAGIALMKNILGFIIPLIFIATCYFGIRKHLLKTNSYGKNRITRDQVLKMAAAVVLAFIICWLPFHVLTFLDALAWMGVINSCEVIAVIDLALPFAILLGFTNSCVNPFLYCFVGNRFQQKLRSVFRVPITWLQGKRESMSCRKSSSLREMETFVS

[5] = molecular target: T3, Calcitonin receptor (Homo sapiens, UniProt P30988); type: cell membranes, Membrane; conditions: t47d; also: in other assays of this panel Not Active means under 50% inhibition at 10 µM
T3 sequence (P30988 whole entry): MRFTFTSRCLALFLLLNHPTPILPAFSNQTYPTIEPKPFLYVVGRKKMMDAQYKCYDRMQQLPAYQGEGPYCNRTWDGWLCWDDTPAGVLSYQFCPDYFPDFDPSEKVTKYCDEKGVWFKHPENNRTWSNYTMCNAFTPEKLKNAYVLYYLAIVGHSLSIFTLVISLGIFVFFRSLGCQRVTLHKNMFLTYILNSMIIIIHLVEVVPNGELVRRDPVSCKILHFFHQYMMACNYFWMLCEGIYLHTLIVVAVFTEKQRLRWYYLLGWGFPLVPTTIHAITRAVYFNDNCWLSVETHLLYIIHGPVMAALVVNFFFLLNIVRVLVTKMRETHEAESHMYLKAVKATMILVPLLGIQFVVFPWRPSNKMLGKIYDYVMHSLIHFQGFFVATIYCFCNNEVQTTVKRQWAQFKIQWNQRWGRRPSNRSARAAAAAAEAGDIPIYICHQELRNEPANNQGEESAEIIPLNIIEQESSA

[6] = DRUGMATRIX: Phorbol Ester radioligand binding (ligand: [3H] PDBu); type: cell membranes, Mus musculus, ICR, Brain, Membrane; conditions: Not Active = under 50% inhibition at 10 µM
[7] = DRUGMATRIX: Nicotinic Acetylcholine radioligand binding (ligand: [125I] Epibatidine); type: cell membranes, Membrane; conditions: imr-32; Not Active = under 50% inhibition at 10 µM
[8] = molecular target: Kappa-type opioid receptor (Homo sapiens, UniProt P41145); assay: DRUGMATRIX: Opiate kappa (OP2, KOP) radioligand binding (ligand: [3H] Diprenorphine); type: cell membranes, HEK293, Membrane; conditions: hek293; Not Active = under 50% inhibition at 10 µM
[9] = molecular target: Vascular endothelial growth factor receptor 1 (Homo sapiens, UniProt P17948); type: cell-based; conditions: huvec; also: in other assays of this panel Not Active means under 50% inhibition at 10 µM
[10] = molecular target: T4, Muscarinic acetylcholine receptor M5 (Homo sapiens, UniProt P08912); type: cell membranes, CHO-K1, Membrane; conditions: cho-k1; also: in other assays of this panel Not Active means under 50% inhibition at 10 µM
T4 sequence (P08912 whole entry): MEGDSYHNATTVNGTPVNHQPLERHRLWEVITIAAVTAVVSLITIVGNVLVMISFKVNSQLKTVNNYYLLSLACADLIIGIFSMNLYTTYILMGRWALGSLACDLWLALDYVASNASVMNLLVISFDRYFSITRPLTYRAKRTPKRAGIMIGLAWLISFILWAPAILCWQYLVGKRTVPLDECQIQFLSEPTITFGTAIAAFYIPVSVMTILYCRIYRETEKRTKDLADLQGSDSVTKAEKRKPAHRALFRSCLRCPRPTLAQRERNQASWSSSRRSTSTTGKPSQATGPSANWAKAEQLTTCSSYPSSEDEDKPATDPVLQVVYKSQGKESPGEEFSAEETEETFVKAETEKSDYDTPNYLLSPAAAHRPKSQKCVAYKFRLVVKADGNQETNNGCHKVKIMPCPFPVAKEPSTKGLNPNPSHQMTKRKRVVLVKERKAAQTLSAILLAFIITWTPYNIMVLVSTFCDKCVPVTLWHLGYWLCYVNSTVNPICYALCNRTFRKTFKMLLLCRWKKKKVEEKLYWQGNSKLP

[11] = DRUGMATRIX: GABAA, Flunitrazepam, Central radioligand binding (ligand: [3H] Flunitrazepam); type: cell membranes, Rattus norvegicus, Wistar, Brain, Membrane; conditions: Not Active = under 50% inhibition at 10 µM
[12] = molecular target: Cytochrome P450 2C9 (Homo sapiens, UniProt P11712); conditions: bti-tn-5b1-4; also: in other assays of this panel Not Active means under 50% inhibition at 10 µM
Cytochrome P450 2C9, sequence (P11712 whole entry): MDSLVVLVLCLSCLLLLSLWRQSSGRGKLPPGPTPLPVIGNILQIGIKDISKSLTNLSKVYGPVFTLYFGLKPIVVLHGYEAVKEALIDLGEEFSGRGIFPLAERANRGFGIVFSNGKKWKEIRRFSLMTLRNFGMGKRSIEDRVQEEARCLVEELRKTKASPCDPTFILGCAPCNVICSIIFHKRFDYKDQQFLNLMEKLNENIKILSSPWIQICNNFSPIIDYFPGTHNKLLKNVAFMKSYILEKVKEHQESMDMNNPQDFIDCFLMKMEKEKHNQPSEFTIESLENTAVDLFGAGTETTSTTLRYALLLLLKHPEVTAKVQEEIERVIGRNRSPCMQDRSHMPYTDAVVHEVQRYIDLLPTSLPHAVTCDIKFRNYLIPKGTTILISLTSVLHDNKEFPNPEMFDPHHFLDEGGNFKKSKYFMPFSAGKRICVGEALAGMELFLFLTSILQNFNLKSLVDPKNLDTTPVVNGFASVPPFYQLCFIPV

Matrix metalloproteinase-9, sequence (P14780 whole entry): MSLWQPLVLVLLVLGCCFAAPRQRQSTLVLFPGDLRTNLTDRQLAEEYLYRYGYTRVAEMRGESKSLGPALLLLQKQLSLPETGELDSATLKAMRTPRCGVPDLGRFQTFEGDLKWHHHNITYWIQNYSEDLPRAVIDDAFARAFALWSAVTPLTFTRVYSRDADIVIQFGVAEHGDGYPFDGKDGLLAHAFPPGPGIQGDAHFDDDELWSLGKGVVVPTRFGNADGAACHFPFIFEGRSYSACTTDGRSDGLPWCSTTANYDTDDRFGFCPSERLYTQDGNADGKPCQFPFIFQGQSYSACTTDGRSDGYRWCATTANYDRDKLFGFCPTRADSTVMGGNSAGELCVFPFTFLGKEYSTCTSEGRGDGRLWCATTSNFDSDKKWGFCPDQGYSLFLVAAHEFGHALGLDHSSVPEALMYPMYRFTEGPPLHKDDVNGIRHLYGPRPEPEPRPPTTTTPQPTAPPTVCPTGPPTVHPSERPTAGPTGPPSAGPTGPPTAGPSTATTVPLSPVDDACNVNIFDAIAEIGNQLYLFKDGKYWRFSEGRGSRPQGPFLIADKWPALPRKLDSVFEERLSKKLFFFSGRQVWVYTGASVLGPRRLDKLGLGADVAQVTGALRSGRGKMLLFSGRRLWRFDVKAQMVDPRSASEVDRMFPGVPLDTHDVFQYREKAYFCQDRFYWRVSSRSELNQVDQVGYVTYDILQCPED
Vascular endothelial growth factor receptor 1, sequence (P17948 whole entry): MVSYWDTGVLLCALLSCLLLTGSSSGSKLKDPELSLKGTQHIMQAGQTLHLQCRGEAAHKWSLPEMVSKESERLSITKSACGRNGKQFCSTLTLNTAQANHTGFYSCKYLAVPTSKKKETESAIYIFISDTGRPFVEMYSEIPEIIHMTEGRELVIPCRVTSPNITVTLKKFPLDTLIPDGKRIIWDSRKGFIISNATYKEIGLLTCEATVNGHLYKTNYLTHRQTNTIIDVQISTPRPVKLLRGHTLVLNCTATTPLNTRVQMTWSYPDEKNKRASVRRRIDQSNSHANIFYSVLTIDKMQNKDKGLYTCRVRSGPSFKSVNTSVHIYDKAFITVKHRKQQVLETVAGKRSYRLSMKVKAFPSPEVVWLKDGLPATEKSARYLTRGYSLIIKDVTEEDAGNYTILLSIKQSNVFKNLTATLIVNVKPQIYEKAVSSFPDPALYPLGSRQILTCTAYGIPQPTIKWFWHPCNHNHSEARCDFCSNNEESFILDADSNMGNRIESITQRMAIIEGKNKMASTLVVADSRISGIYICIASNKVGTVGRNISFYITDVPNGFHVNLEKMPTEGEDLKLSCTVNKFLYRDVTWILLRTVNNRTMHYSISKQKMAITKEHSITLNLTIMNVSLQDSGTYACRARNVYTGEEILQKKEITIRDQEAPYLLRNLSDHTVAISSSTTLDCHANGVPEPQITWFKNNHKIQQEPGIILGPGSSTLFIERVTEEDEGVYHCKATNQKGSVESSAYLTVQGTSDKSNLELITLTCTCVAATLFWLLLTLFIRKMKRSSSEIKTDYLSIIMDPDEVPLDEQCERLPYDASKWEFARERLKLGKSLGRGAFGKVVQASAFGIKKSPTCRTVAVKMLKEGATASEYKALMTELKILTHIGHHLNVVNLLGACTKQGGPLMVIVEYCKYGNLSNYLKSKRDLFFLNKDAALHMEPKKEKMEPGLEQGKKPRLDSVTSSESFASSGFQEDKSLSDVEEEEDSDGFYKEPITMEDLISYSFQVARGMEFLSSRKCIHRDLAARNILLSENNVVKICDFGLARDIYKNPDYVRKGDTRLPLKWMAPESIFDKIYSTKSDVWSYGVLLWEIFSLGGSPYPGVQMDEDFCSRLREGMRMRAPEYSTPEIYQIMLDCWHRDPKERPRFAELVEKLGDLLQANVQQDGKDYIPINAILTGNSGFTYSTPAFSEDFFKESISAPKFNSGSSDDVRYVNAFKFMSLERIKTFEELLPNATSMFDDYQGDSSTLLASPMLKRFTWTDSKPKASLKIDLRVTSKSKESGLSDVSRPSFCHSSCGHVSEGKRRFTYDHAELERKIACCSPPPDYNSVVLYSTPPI
Kappa-type opioid receptor, sequence (P41145 whole entry): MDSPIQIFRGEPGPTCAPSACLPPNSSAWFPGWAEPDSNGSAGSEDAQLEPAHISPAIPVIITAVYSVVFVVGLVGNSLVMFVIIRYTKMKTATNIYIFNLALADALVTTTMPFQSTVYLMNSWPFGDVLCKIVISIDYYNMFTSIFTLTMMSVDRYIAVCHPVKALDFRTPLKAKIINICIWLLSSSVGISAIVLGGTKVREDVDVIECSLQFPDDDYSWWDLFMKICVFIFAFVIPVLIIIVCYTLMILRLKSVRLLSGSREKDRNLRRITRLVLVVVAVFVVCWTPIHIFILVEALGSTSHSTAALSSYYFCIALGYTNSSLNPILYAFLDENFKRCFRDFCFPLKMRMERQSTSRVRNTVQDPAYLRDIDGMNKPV

O=C1OCCN1/N=C/c1ccc([N+](=O)[O-])o1 [FURAZOLIDONE]
Not Active: IC50 [1] | IC50 [2] | IC50 [3] | Ki [3] | IC50 [4] | IC50 [5] | IC50 [6] | Ki [6] | IC50 [7] | Ki [7] | IC50 [8] | IC50 [9] | IC50 [10] | IC50 [11] | Ki [11]

CC[C@H](C)[C@H](N)C1=N[C@H](C(=O)N[C@@H](CC(C)C)C(=O)N[C@H](CCC(=O)O)C(=O)N[C@H](C(=O)N[C@H]2CCCCNC(=O)[C@H](CC(N)=O)NC(=O)[C@@H](CC(=O)O)NC(=O)[C@H](Cc3cnc[nH]3)NC(=O)[C@@H](Cc3ccccc3)NC(=O)[C@H]([C@@H](C)CC)NC(=O)[C@@H](CCCN)NC2=O)[C@@H](C)CC)CS1 [BACITRACIN] ({Ileψ(thiazoline)Cys}-L[dE]IK[dOrn]I[dF]H[dD]N; lactam 4-C)
Not Active: IC50 [1] | IC50 [2] | IC50 [3] | Ki [3] | IC50 [4] | IC50 [5] | IC50 [6] | Ki [6] | IC50 [7] | Ki [7] | IC50 [8] | IC50 [9] | IC50 [10] | IC50 [11] | Ki [11]

Fc1ccc([C@@H]2CCNC[C@H]2COc2ccc3c(c2)OCO3)cc1 [PAROXETINE]
Not Active: IC50 [1] | IC50 [2] | IC50 [3] | Ki [3] | IC50 [4] | IC50 [5] | IC50 [6] | Ki [6] | IC50 [7] | Ki [7] | IC50 [8] | IC50 [12] | Ki [12] | IC50 [9] | IC50 [11] | Ki [11]

Oc1cccc2cccnc12 [OXYQUINOLINE]
Not Active: IC50 [1] | IC50 [2] | IC50 [3] | Ki [3] | IC50 [4] | IC50 [5] | IC50 [6] | Ki [6] | IC50 [7] | Ki [7] | IC50 [8] | IC50 [9] | IC50 [10] | IC50 [11] | Ki [11]

CCCCOC(=O)c1ccc(N)cc1 [BUTAMBEN]
Not Active: IC50 [1] | IC50 [2] | IC50 [3] | Ki [3] | IC50 [4] | IC50 [5] | IC50 [6] | Ki [6] | IC50 [7] | Ki [7] | IC50 [8] | IC50 [9] | IC50 [10] | IC50 [11] | Ki [11]

CC(C)n1c(/C=C/C(O)CC(O)CC(=O)O)c(-c2ccc(F)cc2)c2ccccc21 (stereo not given) [FLUVASTATIN]
Not Active: IC50 [1] | IC50 [2] | IC50 [3] | Ki [3] | IC50 [4] | IC50 [5] | IC50 [6] | Ki [6] | IC50 [7] | Ki [7] | IC50 [8] | IC50 [9] | IC50 [10] | IC50 [11] | Ki [11]

CC(C)NC[C@H](O)COc1cccc2[nH]ccc12
Not Active: IC50 [1] | IC50 [2] | IC50 [3] | Ki [3] | IC50 [4] | IC50 [5] | IC50 [6] | Ki [6] | IC50 [7] | Ki [7] | IC50 [8] | IC50 [9] | IC50 [10] | IC50 [11] | Ki [11]

O=P1(NCCCl)OCCCN1CCCl (stereo not given) [IFOSFAMIDE]
Not Active: IC50 [1] | IC50 [2] | IC50 [3] | Ki [3] | IC50 [4] | IC50 [5] | IC50 [6] | Ki [6] | IC50 [7] | Ki [7] | IC50 [8] | IC50 [9] | IC50 [10] | IC50 [11] | Ki [11]

OXALIPLATIN
Not Active: IC50 [1] | Ki [1] | IC50 [2] | Ki [2] | IC50 [3] | Ki [3] | IC50 [4] | Ki [4] | IC50 [5] | Ki [5] | IC50 [6] | Ki [6] | IC50 [7] | Ki [7] | IC50 [12] | Ki [12] | IC50 [9] | Ki [9] | IC50 [10] | Ki [10] | IC50 [11] | Ki [11]

CARBOPLATIN
Not Active: IC50 [1] | Ki [1] | IC50 [2] | Ki [2] | IC50 [3] | Ki [3] | IC50 [4] | Ki [4] | IC50 [5] | Ki [5] | IC50 [6] | Ki [6] | IC50 [7] | Ki [7] | IC50 [12] | Ki [12] | IC50 [9] | Ki [9] | IC50 [10] | Ki [10] | IC50 [11] | Ki [11]
